# Test results from publication PMC7067850, “Identification of highly potent and selective inhibitor, TIPTP, of the p22phox-Rubicon axis as a therapeutic agent for rheumatoid arthritis” (Scientific Reports, 2020).
# Columns and labels:
# [1] = Pharmacokinetic study in male ICR mice (IP and IV); type: in vivo, mouse
# Procedure: TIPTP at a dose of 0.5 mg/kg and 1 mg/kg was administered intravenously and intraperitoneally to male ICR mice. Blood samples were collected via the carotid artery at 0 (to serve as a control), 0.03, 0.16, 0.25, 0.5, 1, 2, 4, 6, and 24 h after administration of the compound. After centrifugation at 3000 rpm for 10 min, a 13.5 µL aliquot of plasma samples were stored at -20 C until analysis. Pharmacokinetic parameters were determined by a noncompartmental analysis using WinNonlin® (Pharsight Corporation, Mountain View, CA) program. The total area under the plasma concentration-time curve from time zero to the last measured time (AUClast) was calculated by the trapezoidal rule[…] method. Standard methods in the literature (M. Gibaldi, D. Perrier, Pharmacokinetics, second ed., Marcel-Dekker, New York, 1982.) were used to calculate the following pharmacokinetic parameters; the time averaged total body clearance (CL), total area under the first moment of plasma concentration-time curve from time zero to time infinity (AUC0-∞), terminal half-life, mean residence time (MRT), apparent volume of distribution at steady state (Vss). Concentrations of the compound in the above samples were analyzed using LC-MS/MS. To a 13.5 µL aliquot of plasma sample, a 60 µL aliquot of acetonitrile containing 1 µg/mL of internal standard (carbamazepine) was added. After vortex mixing and centrifugation at 6,000 rpm for 15 min, a […] of supernatant was added to 100μL distilled water and injected into LCMS/MS system. The LC-MS/MS system consisted of Agilent 1200 series HPLC system (Agilent, Santa Clara, CA) and API3200® triple-quadrupole mass spectrometer (Applied Biosystems-SCIEX, Concord, Canada). The HPLC mobile phases consisted of 0.1% formic acid in water (A) and acetonitrile (B). Chromatographic separation was achieved on a reversed-phase Atlantis T3 column (100 x 2.1 mm, 3 µm, Waters Corporation, Milford, MA) using gradient elution at a flow rate of 0.25 mL/min. The lower limit of quantitation of the compound in mice plasma was 9.7 ng/mL. The values of coefficients of correlation (R) were more than 0.997.
# [2] = system: NADPH oxidase; assay: NADPH oxidase activity (lucigenin-ECL) in BMDMs; type: cell-based, mouse; conditions: LPS or LPS/ATP stimulated (Fig. 3c, Supplemental Fig. 5b, 5e)
# Procedure: Intracellular superoxide production was measured by the lucigenin (bis-N-methylacridinium nitrate)-ECL method[18],[19]. Briefly, cells lysates were allowed to equilibrate for 30 min at 37 °C in a reaction containing 50 mM phosphate buffer (pH 7.0), 1 mM EGTA, 150 mM sucrose, and a protease inhibitor mixture prior to the addition of Krebs-HEPES buffer containing lucigenin (5 μM) as the electron acceptor and NADPH (100 μM) as the electron donor. The values are expressed as relative light units per 1 × 10^5 cells.
# Figure 3 TIPTP robustly suppresses LPS/ATP-mediated Rubicon-p22phox interaction and ROS-mediated inflammation. (a) Structure of the TIPTP. (b) MTT assay for cell viability. BMDMs were incubated with TIPTP for the indicated times at the indicated TIPTP concentrations (upper). WCLs were used for IB with α22phox, αRubicon, or αActin (lower). (c–f) LPS (100 ng/ml)-primed BMDMs were treated with compounds for 1 h, and then activated with ATP (1 mM) for 30 min. (c) NADPH oxidase activity. (d) FACS analysis for superoxide and hydrogen peroxide (upper). Quantitative analysis of mean fluorescence intensities of ROS (lower). (e) BMDMs were incubated with increasing concentrations of compound 1 and TIPTP (com 2) (***). IP with αRubicon, followed by IB with αp22phox, αBeclin-1, αUVRAG, αRubicon. […] (f) Culture supernatants were harvested and analyzed for cytokines by ELISA. […]
# [3] = IP, 1 mg/kg, male ICR mouse plasma
# [4] = IV, 0.5 mg/kg, male ICR mouse plasma
structure (smiles),measurement,setting,value
"C[C@@H](Oc1cccc(-n2cc3c(n2)CCCC3)c1)C(=O)Nc1nnc(C(F)(F)F)s1 [TIPTP, (R)-2-(3-(4,5,6,7-tetrahydro-2H-indazol-2-yl)phenoxy)-N-(5-(trifluoromethyl)-1,3,4-thiadiazol-2-yl)propanamide]",AUC(0-inf),[1]; [3],15100 ± 3410 ng·h/mL
same,Cmax,[1]; [3],5590 ± 1430 ng/mL
same,MRT inf,[1]; [3],3.42 ± 0.43 h
same,Tmax,[1]; [3],0.23 ± 0.04 h
same,half-life,[1]; [3],2.91 ± 0.14 h
same,AUC(0-t),"[1]; IP, 1 mg/kg, male ICR mouse plasma, n = 5, mean ± SD",15100 ± 3410 ng·h/mL
same,AUC(0-inf),[1]; [4],10000 ± 451 ng·h/mL
same,MRT inf,[1]; [4],2.57 ± 0.52 h
same,half-life,[1]; [4],3.67 ± 0.39 h
same,AUC(0-t),"[1]; IV, 0.5 mg/kg, male ICR mouse plasma, n = 3, mean ± SD",9980 ± 446 ng·h/mL
same,clearance,"[1]; plasma, IV, 0.5 mg/kg, male ICR mouse",0.832 mL/min/kg
same,Vd,"[1]; plasma, IV, 0.5 mg/kg, male ICR mouse, read-out: Vss",0.128 ± 0.0246 L/kg
same,NOX activity,[2],inhibited in a dose-dependent manner
